Measurements as given in patent US5047398A, “DDAVP antidiuretic and method therefor” (Ferring B.V., priority 1983, dated 1991).
Like-named read-outs stand apart in the source and are kept apart here.

How the values were obtained:
[1] = tested on: healthy subjects; assay type: in vivo, human
Experimental: Ten healthy subjects of both sexes, aged 18 through 43 were treated with DDAVP and 4-Asn-DDAVP.
One to two hours after a normal breakfast, the subjects were hydrated by drinking the volume of tap water that corresponded to 2% of their body weight. Every 15 minutes, urine was collected and its volume and osmolality were measured using an Advanced Osmometer Model 3D11. In order to overhydrate themselves, the subjects substituted their loss of fluid by drinking a volume of tap water that corresponded to the amount of urine collected. After about 40 to 45 minutes, the diuresis increased to about 200 milliliters per 15 minute period. At that time, DDAVP or 4-Asn-DDAVP in amounts of from 20 to 200 micrograms was administered perorally in 50 milliliters of distilled water. The DDAVP and 4-Asn-DDAVP were supplied by Ferring AB in lyophilized powder form which could easily be dissolved in water. The water diuresis was followed continually up to 6 hours.

[2] = in vivo; cited from earlier work
[3] = tested on: healthy subjects; test: Water diuresis in overhydrated subjects after injection through a duodenal tube; assay type: in vivo, human; conditions: 200 micrograms in 10 ml water through duodenal tube, two subjects
Experimental: Two of the subjects were supplied with a duodenal tube which was inserted through the nose. The end of the tube was placed with the help of X-rays in the distal part of the duodenum. Overhydration and urine sampling were then carried out as described above. […] After this, 200 micrograms of DDAVP dissolved in 10 milliliters of water were injected through a tube.

Compound | therapeutic (antidiuretic) effect ([1]; oral, dose of 100 micrograms) | antidiuretic effect ([1]; oral, doses 20 to 200 micrograms, effect only with the highest dose) | antidiuretic activity [2] | antidiuretic response with increase in osmolality and conductivity of urine [3] | side-effects ([1]; human, in vivo) | therapeutic (antidiuretic) effect ([1]; peroral, 20 microgram dosage) | dose dependence of antidiuretic response (magnitude and duration) ([1]; peroral, 20 to 200 micrograms in 50 ml distilled water) | duration of antidiuretic effect ([1]; peroral, 20 to 200 micrograms, diuresis followed up to 6 hours)
1-deamino-4-asparagine-8-D-arginine-vasopressin [Example 4-Asn-DDAVP] | no therapeutic effect | only a moderate, extremely short-lived, effect |  |  |  |  |  | 
NC(=O)CC[C@@H]1NC(=O)[C@H](Cc2ccccc2)NC(=O)[C@H](Cc2ccc(O)cc2)NC(=O)CCSSC[C@@H](C(=O)N2CCC[C@H]2C(=O)N[C@H](CCCN=C(N)N)C(=O)NCC(N)=O)NC(=O)[C@H](CC(N)=O)NC1=O [DDAVP, 1-deamino-8-D-arginine vasopressin] |  |  | high and specific antidiuretic activity | immediate antidiuretic response | no side-effects were experienced | therapeutic effect was obtained | dosedependent effect | at least 6 hours
